Series [1] has as its system Enterobacter cloace 1321E. In words: MIC by agar dilution, in vitro activity test. The conditions noted are these: 37° C., 18 to 20 hours, read-out: Minimal Inhibitory Concentration (MIC). Format: cell-based. The method, then: (§1) These MIC values were determined by agar dilution method: that is, two-fold dilutions of each of the test compounds were made and dispersed in a Mueller-Hinton Broth medium. Standard test strain which had the 10^6 CFU per ml was inoculated on the medium, and was incubated at 37° C. for 18 to 20 hours.

For a further series, the system named is Enterobacter cloace P99. As to the kind of experiment: MIC by agar dilution, in vitro activity test. Format: cell-based. The conditions noted are these: P99, 20 h, read-out: Minimal Inhibitory Concentration (MIC). The method, then:
as §1

The test system of the next series is Escherichia coli 078. As to the kind of experiment: MIC by agar dilution, in vitro activity test. The series is classed as cell-based. Particulars: 37° C., 18 to 20 hours, read-out: Minimal Inhibitory Concentration (MIC). How it is done: as §1
Background: In agar dilution the substance is mixed into plates at graded concentrations.

For the next series, the system named is Escherichia coli 1507E. As to the kind of experiment: MIC by agar dilution, in vitro activity test. The series is classed as cell-based. The conditions noted are these: Escherichia coli 1507E; agar dilution, 37° C., 18 to 20 hours; read-out: Minimal Inhibitory Concentration (MIC). How it is done:
as §1

For another series, the system named is Escherichia coli DC 0. In words: MIC by agar dilution, in vitro activity test. The series is classed as cell-based. The conditions noted are these: DC0, 37° C., 18 to 20 hours, read-out: Minimal Inhibitory Concentration (MIC). How it is done: as §1
Another series relates to Escherichia coli DC 2. In words: MIC by agar dilution, in vitro activity test. Format: cell-based. The conditions noted are these: DC2, 37° C., 18 to 20 hours, read-out: Minimal Inhibitory Concentration (MIC). How it is done: as §1
Another series concerns Escherichia coli TEM. In words: MIC by agar dilution, in vitro activity test. The series is classed as cell-based. Particulars: 20 h, read-out: Minimal Inhibitory Concentration (MIC). The method, then:
as §1

The subject of series [2] is Klebsiella aerogenes 1082E. In words: MIC by agar dilution, in vitro activity test. Format: cell-based. Particulars: 37° C., 18 to 20 hours, read-out: Minimal Inhibitory Concentration (MIC). How it is done:
as §1

In series [3] the test system is Klebsiella aerogenes 1522E. In words: MIC by agar dilution, in vitro activity test. The series is classed as cell-based. The conditions noted are these: Klebsiella aerogenes 1522E; agar dilution, 37° C., 18 to 20 hours; read-out: Minimal Inhibitory Concentration (MIC). The method, then:
as §1

In series [4] the test system is Pseudomonas aeruginosa 1592E. In words: MIC by agar dilution, in vitro activity test. Format: cell-based. The conditions noted are these: 37° C., 18 to 20 hours, read-out: Minimal Inhibitory Concentration (MIC). The method, then:
as §1

The subject of series [5] is Pseudomonas aeruginosa 1771M. In words: MIC by agar dilution, in vitro activity test. Particulars: 20 h, read-out: Minimal Inhibitory Concentration (MIC). Format: cell-based. How it is done:
as §1

Series [6] has as its system Pseudomonas aeruginosa 9027. As to the kind of experiment: MIC by agar dilution, in vitro activity test. Format: cell-based. Particulars: 37° C., 18 to 20 hours, read-out: Minimal Inhibitory Concentration (MIC). How it is done:
as §1

The test system of the next series is Salmonella typhimurium. In words: MIC by agar dilution, in vitro activity test. The series is classed as cell-based. Particulars: Salmonella enterica, 37° C., 18 to 20 hours, read-out: Minimal Inhibitory Concentration (MIC). The method, then: as §1
Series [7] concerns Staphylococcus aureus 285. As to the kind of experiment: MIC by agar dilution, in vitro activity test. Format: cell-based. Particulars: 37° C., 18 to 20 hours, read-out: Minimal Inhibitory Concentration (MIC). How it is done:
as §1

Series [8] has as its system Staphylococcus aureus 503. In words: MIC by agar dilution, in vitro activity test. The series is classed as cell-based. The conditions noted are these: 37° C., 18 to 20 hours, read-out: Minimal Inhibitory Concentration (MIC). The method, then:
as §1

Series [9] concerns Staphylococcus aureus SG511. As to the kind of experiment: MIC by agar dilution, in vitro activity test. Format: cell-based. Particulars: 37° C., 18 to 20 hours, read-out: Minimal Inhibitory Concentration (MIC). The method, then:
as §1

For series [10], the system named is Streptococcus faecium MD 8b. In words: MIC by agar dilution, in vitro activity test. Format: cell-based. Particulars: Enterococcus faecium, MD8B, 20 h, read-out: Minimal Inhibitory Concentration (MIC). The method, then: as §1
For series [11], the system named is Streptococcus pyogenes 77A. As to the kind of experiment: MIC by agar dilution, in vitro activity test. The series is classed as cell-based. Particulars: 37° C., 18 to 20 hours, read-out: Minimal Inhibitory Concentration (MIC). How it is done:
as §1

The subject of series [12] is Pseudomonas aeruginosa 1771. In words: MIC by agar dilution, in vitro activity test. Particulars: 37° C., 18 to 20 hours, read-out: Minimal Inhibitory Concentration (MIC). Format: cell-based. How it is done: These MIC values were determined by agar dilution method: that is, two-fold dilutions of each of the test compounds were made and dispersed in a Mueller-Hinton Broth medium.

Series [13] deals with Staphylococcus aureus, Escherichia coli and Pseudomonas aeruginosa. In words: MIC by agar dilution, comparison in words. The series is classed as cell-based. Particulars: against Staphylococcus aureus, vs Cefotaxime. The method, then: as §1
A further series is described as follows: Acute toxicity study. The series is classed as in vivo. Particulars: in vivo. How it is done: (§2) In order to illustrate usefulness of the compounds of the present invention, acute toxicity test of the compounds synthesized in the above Examples were carried out. Each dose of the compounds dissolved in saline and buffer solution (PH=7.0) was administered by intravenous or subcutaneous injection. Mortalities of the animals was recorded seven days latter.
(§3) .asterisk-pseud. Mouse: Male ICR strain, 4 weeks

Another series concerns Mouse. In words: Acute toxicity study. The conditions noted are these: 10080 min. Format: in vivo. The method, then: as §2, §3
Series [14] deals with Pseudomonas aeruginosa 9071. As to the kind of experiment: MIC by agar dilution, in vitro activity test. The series is classed as cell-based. Particulars: 37° C., 18 to 20 hours, read-out: Minimal Inhibitory Concentration (MIC). The method, then: as §1
The subject of series [15] is Streptococcus pyogenes 71A. As to the kind of experiment: MIC by agar dilution, in vitro activity test. The series is classed as cell-based. The conditions noted are these: 37° C., 18 to 20 hours, read-out: Minimal Inhibitory Concentration (MIC). How it is done: as §1
Another series concerns Pseudomonas aeruginosa. In words: MIC by agar dilution, comparison in words. The series is classed as cell-based. The conditions noted are these: against Pseudomonas aeruginosa; vs Cefpirome. The method, then: as §1
[16] abbreviates: iv, i.v, male ICR mouse, 4 weeks, mortality at seven days, read-out: LD50 i.v.
[17] abbreviates: sc, s.c, male ICR mouse, 4 weeks, mortality at seven days, read-out: LD50 s.c.

Values after ≈ are worked out from the molar mass of the structure shown. Read-outs that look alike come from different tables or passages of the source.

In the case of `CC[N+](C)(CC=CC(N)=O)C/C=C/C1=C(C(=O)[O-])N2C(=O)[C@@H](NC(=O)/C(=N\OCCF)c3csc(N)n3)[C@H]2SC1` (stereo partly drawn) [Example 12, 7β-[(Z)-2-(2-aminothiazol-4-yl)-2-fluoroethoxyiminoacetamdo]-3-[(E)-3-[(1-carbamoyl-1-propen-3-yl)-3-ethylmethylammonio]-1-propen-1-yl]3-cephem-4-carboxylate], the MIC was 0.05 mg/L (≈ 0.0839 µM) in series [1]; 1.6 mg/L (≈ 2.69 µM) in the series with Enterobacter cloace P99; 0.025 mg/L (≈ 0.042 µM) with Escherichia coli 078; 0.05 mg/L (≈ 0.0839 µM) in the series on Escherichia coli 1507E; less than 0.006 mg/L in the series with Escherichia coli DC 0; 0.05 mg/L (≈ 0.0839 µM) in the series with Escherichia coli DC 2. For the same compound, the MIC in the series with Escherichia coli TEM worked out at 0.05 mg/L (≈ 0.0839 µM); in series [2] it was 3.1 mg/L (≈ 5.2 µM); in [3], 0.1 mg/L (≈ 0.168 µM); in series [4], 6.3 mg/L (≈ 10.6 µM); in [5] it was 0.8 mg/L (≈ 1.34 µM); in series [6], 12.5 mg/L (≈ 21 µM). Besides, the MIC is 0.4 mg/L (≈ 0.672 µM) with Salmonella typhimurium; 0.8 mg/L (≈ 1.34 µM) in [7]; 0.8 mg/L (≈ 1.34 µM) in series [8]; 0.8 mg/L (≈ 1.34 µM) in series [9]; more than 100 mg/L in [10]; 0.025 mg/L (≈ 0.042 µM) in [11]. Also, the MIC in series [12] was found to be 6.3 mg/L (≈ 10.6 µM). Also, the “MICs compared with Cefotaxime” value in [13] is reported as “superior to that of Cefotaxime”. The LD50 at 168 h was more than 2000 mg/kg in the series “Acute toxicity study” (setting [16]) and more than 3000 mg/kg in the series “Acute toxicity study” (setting [17]). Besides, the “acute toxicity in intravenous routes” value in the series with Mouse was more than 2000 mg/kg. The “acute toxicity in subcutaneous routes” value with Mouse is more than 3000 mg/kg.
As to `CC[N+](C)(CC=CC(N)=O)C/C=C/C1=C(C(=O)[O-])N2C(=O)[C@@H](NC(=O)/C(=N\OC)c3nsc(N)n3)[C@H]2SC1` (stereo partly drawn) [Example 13, 7β-[(Z)-2-(5-amino-1,2,4-thiadiazol-3-yl)-2-methoxyiminoacetamido]-3-[(E)-3-[(1-carbamoyl-1-propen-3-yl)-3-ethylmethylammonio]-1-propen-1-yl]3-cephem-4-carboxylate], the MIC in series [1] is 0.05 mg/L (≈ 0.0886 µM); in the series with Enterobacter cloace P99 it was 1.6 mg/L (≈ 2.83 µM); in the series with Escherichia coli 078, 0.05 mg/L (≈ 0.0886 µM); in the series on Escherichia coli 1507E, 0.1 mg/L (≈ 0.177 µM); in the series with Escherichia coli DC 0 it was 0.025 mg/L (≈ 0.0443 µM); in the series with Escherichia coli DC 2, 0.2 mg/L (≈ 0.354 µM). Besides, the MIC was found to be 0.05 mg/L (≈ 0.0886 µM) in the series on Escherichia coli TEM; 3.1 mg/L (≈ 5.49 µM) in series [2]; 0.2 mg/L (≈ 0.354 µM) in series [3]; 1.6 mg/L (≈ 2.83 µM) in [4]; 0.4 mg/L (≈ 0.708 µM) in [5]; 3.1 mg/L (≈ 5.49 µM) in [14]. The MIC with Salmonella typhimurium is 0.2 mg/L (≈ 0.354 µM); in series [7], 0.8 mg/L (≈ 1.42 µM); in [8] it was 0.8 mg/L (≈ 1.42 µM); in series [9] it was 0.8 mg/L (≈ 1.42 µM); in [10], more than 100 mg/L; in series [15] it was 0.025 mg/L (≈ 0.0443 µM). Besides, in series [12], the MIC amounted to 1.6 mg/L (≈ 2.83 µM). Also, in the series on Pseudomonas aeruginosa, the “MICs compared with Cefpirome” value is “superior to that of Cefpirome”. The LD50 at 168 h in “Acute toxicity study” (mouse, iv, i.v, male ICR mouse, 4 weeks, mortality at seven days, read-out: LD50 i.v) was more than 2000 mg/kg; in the series “Acute toxicity study” (mouse, iv, intravenous routes, read-out: acute toxicity in intravenous routes), more than 2000 mg/kg; in “Acute toxicity study” (mouse, sc, s.c, male ICR mouse, 4 weeks, mortality at seven days, read-out: LD50 s.c) it was more than 3000 mg/kg.
Take `CC[N+](C)(CC=CC(N)=O)C/C=C/C1=C(C(=O)[O-])N2C(=O)[C@@H](NC(=O)/C(=N\OCCF)c3nsc(N)n3)[C@H]2SC1` (stereo partly drawn) [Example 15, 7β-[(Z)-2-(5-amino-1,2,4-thiadiazol-3-yl)-2-fluoroethoxyiminoacetamido]-3-[(E)-3-[(1-carbamoyl-1-propen-3-yl)-3-ethylmethylammonio]-1-propen-1-yl]3-cephem-4-carboxylate]: the MIC turned out to be 0.05 mg/L (≈ 0.0838 µM) in [1]; 0.8 mg/L (≈ 1.34 µM) in the series on Enterobacter cloace P99; 0.025 mg/L (≈ 0.0419 µM) with Escherichia coli 078; 0.1 mg/L (≈ 0.168 µM) in the series with Escherichia coli 1507E; 0.012 mg/L (≈ 0.0201 µM) in the series with Escherichia coli DC 0; 0.1 mg/L (≈ 0.168 µM) in the series on Escherichia coli DC 2. For the same compound, the MIC in the series on Escherichia coli TEM came out at 0.05 mg/L (≈ 0.0838 µM); in series [2], 3.1 mg/L (≈ 5.2 µM); in [3] it was 0.05 mg/L (≈ 0.0838 µM); in series [4] it was 3.1 mg/L (≈ 5.2 µM); in series [5], 0.8 mg/L (≈ 1.34 µM); in [14] it was 3.1 mg/L (≈ 5.2 µM). The MIC with Salmonella typhimurium was 0.2 mg/L (≈ 0.335 µM); in series [7] it was 0.8 mg/L (≈ 1.34 µM); in series [8] it was 0.8 mg/L (≈ 1.34 µM); in series [9], 0.8 mg/L (≈ 1.34 µM); in series [10], more than 100 mg/L; in series [15], 0.025 mg/L (≈ 0.0419 µM). Further, the MIC in [12] stood at 3.1 mg/L (≈ 5.2 µM). The LD50 at 168 h was more than 2000 mg/kg in the series “Acute toxicity study” (setting [16]) and more than 3000 mg/kg in “Acute toxicity study” (setting [17]). The “acute toxicity in intravenous routes” value in the series with Mouse is more than 2000 mg/kg. The “acute toxicity in subcutaneous routes” value with Mouse was more than 3000 mg/kg.

The values above are taken from patent publication US6063778A, “Cephalosporin derivatives and processes for the preparation thereof” (Il-Dong Pharm. Co., Ltd., priority 1995, dated 2000).
